Results as given in PubChem BioAssay (NCI).
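GI50: concentration for 50% inhibition of growth. The concentration for full growth arrest is given as TGI.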

Tests used:
Experiment in all cases: NCI-60 cell line screen, 384-well format
TK-10 renal = tested on: TK-10 renal
T-47D breast = tested on: T-47D breast
786-0 renal = tested on: 786-0 renal
HS 578T breast = tested on: HS 578T breast
SK-MEL-28 melanoma = tested on: SK-MEL-28 melanoma
BT-549 breast = tested on: BT-549 breast
HOP-92 NSCLC = tested on: HOP-92 NSCLC
M14 melanoma = tested on: M14 melanoma
SF-539 CNS = tested on: SF-539 CNS
UACC-257 melanoma = tested on: UACC-257 melanoma
SW-620 colon = tested on: SW-620 colon
SN12C renal = tested on: SN12C renal
EKVX NSCLC = tested on: EKVX NSCLC
SK-MEL-2 melanoma = tested on: SK-MEL-2 melanoma
HOP-62 NSCLC = tested on: HOP-62 NSCLC
NCI-H460 NSCLC = tested on: NCI-H460 NSCLC
CAKI-1 renal = tested on: CAKI-1 renal
RPMI-8226 leukemia = tested on: RPMI-8226 leukemia
A549 NSCLC = tested on: A549 NSCLC
HCT-15 colon = tested on: HCT-15 colon
CCRF-CEM leukemia = tested on: CCRF-CEM leukemia
MDA-MB-468 breast = tested on: MDA-MB-468 breast
SNB-75 CNS = tested on: SNB-75 CNS
NCI-H522 lung = tested on: NCI-H522 lung
SF-268 CNS = tested on: SF-268 CNS
NCI-H226 lung = tested on: NCI-H226 lung
COLO 205 colon = tested on: COLO 205 colon
NCI-H23 lung = tested on: NCI-H23 lung
MALME-3M melanoma = tested on: MALME-3M melanoma
A498 renal = tested on: A498 renal
NCI-H322M lung = tested on: NCI-H322M lung
UACC-62 melanoma = tested on: UACC-62 melanoma
HCC-2998 colon = tested on: HCC-2998 colon
SNB-19 CNS = tested on: SNB-19 CNS
OVCAR-5 ovarian = tested on: OVCAR-5 ovarian
MCF7 breast = tested on: MCF7 breast
OVCAR-4 ovarian = tested on: OVCAR-4 ovarian
SK-MEL-5 melanoma = tested on: SK-MEL-5 melanoma
SR leukemia = tested on: SR leukemia
OVCAR-8 ovarian = tested on: OVCAR-8 ovarian
ACHN renal = tested on: ACHN renal
U251 glioblastoma = tested on: U251 glioblastoma
DU-145 prostate = tested on: DU-145 prostate
MDA-MB-231 breast = tested on: MDA-MB-231 breast
OVCAR-3 ovarian = tested on: OVCAR-3 ovarian
SK-OV-3 ovarian = tested on: SK-OV-3 ovarian
HL-60(TB) leukemia = tested on: HL-60(TB) leukemia
SF-295 CNS = tested on: SF-295 CNS
KM12 colon = tested on: KM12 colon
HT29 colon = tested on: HT29 colon
PC-3 prostate = tested on: PC-3 prostate
RXF 393 renal = tested on: RXF 393 renal
IGROV1 ovarian = tested on: IGROV1 ovarian
NCI/ADR-RES ovarian = tested on: NCI/ADR-RES ovarian
MDA-MB-435 melanoma = tested on: MDA-MB-435 melanoma
MOLT-4 leukemia = tested on: MOLT-4 leukemia

## COCC1(CO)C(=O)C2CCN1CC2 (centres undefined)
TK-10 renal
  GI50: 17 µM
  TGI: 30.7 µM
T-47D breast
  GI50: 1.58 µM
  TGI: 2.94 µM
786-0 renal
  GI50: 15.5 µM
  TGI: 28.9 µM
HS 578T breast
  GI50: 13.1 µM
  TGI: 25.9 µM
SK-MEL-28 melanoma
  GI50: 20.6 µM
  TGI: 35 µM
BT-549 breast
  GI50: 11.5 µM
  TGI: 23.7 µM
HOP-92 NSCLC
  GI50: 10.9 µM
  TGI: 22.9 µM
M14 melanoma
  GI50: 17.8 µM
  TGI: 31.8 µM
SF-539 CNS
  GI50: 17.5 µM
  TGI: 31.3 µM
UACC-257 melanoma
  GI50: 13.9 µM
  TGI: 27 µM
SW-620 colon
  GI50: 14.2 µM
  TGI: 27.4 µM
SN12C renal
  GI50: 15.3 µM
  TGI: 28.8 µM
EKVX NSCLC
  GI50: 16.9 µM
  TGI: 30.6 µM
SK-MEL-2 melanoma
  GI50: 2.62 µM
  TGI: 5.41 µM
HOP-62 NSCLC
  GI50: 1.86 µM
  TGI: 3.49 µM
NCI-H460 NSCLC
  GI50: 17.4 µM
  TGI: 31.6 µM
CAKI-1 renal
  GI50: 17.1 µM
  TGI: 30.9 µM
RPMI-8226 leukemia
  GI50: 10.5 µM
  TGI: 22.3 µM
A549 NSCLC
  GI50: 18.2 µM
  TGI: 32.4 µM
HCT-15 colon
  GI50: 4.34 µM
  TGI: 13.9 µM
CCRF-CEM leukemia
  GI50: 1.76 µM
  TGI: 3.33 µM
MDA-MB-468 breast
  GI50: 3.28 µM
  TGI: 7.2 µM
SNB-75 CNS
  GI50: 1.79 µM
  TGI: 3.73 µM
NCI-H522 lung
  GI50: 1.83 µM
  TGI: 3.24 µM
SF-268 CNS
  GI50: 20 µM
  TGI: 34.2 µM
NCI-H226 lung
  GI50: 21.9 µM
  TGI: 36.4 µM
COLO 205 colon
  GI50: 18.1 µM
  TGI: 32.1 µM
NCI-H23 lung
  GI50: 11.8 µM
  TGI: 24.2 µM
MALME-3M melanoma
  GI50: 17.5 µM
  TGI: 31.3 µM
A498 renal
  GI50: 16.7 µM
  TGI: 30.5 µM
NCI-H322M lung
  GI50: 19.7 µM
  TGI: 35.2 µM
UACC-62 melanoma
  GI50: 18.2 µM
  TGI: 32.2 µM
HCC-2998 colon
  GI50: 17.2 µM
  TGI: 31 µM
SNB-19 CNS
  GI50: 17.5 µM
  TGI: 31.5 µM
OVCAR-5 ovarian
  GI50: 16.5 µM
  TGI: 30.2 µM
MCF7 breast
  GI50: 3.68 µM
  TGI: 12.4 µM
OVCAR-4 ovarian
  GI50: 2.6 µM
  TGI: 6.3 µM
SK-MEL-5 melanoma
  GI50: 15.5 µM
  TGI: 29 µM
SR leukemia
  GI50: 14.6 µM
  TGI: 27.8 µM
OVCAR-8 ovarian
  GI50: 19.8 µM
  TGI: 34.1 µM
ACHN renal
  GI50: 20.3 µM
  TGI: 34.6 µM
U251 glioblastoma
  GI50: 18.7 µM
  TGI: 32.8 µM
DU-145 prostate
  GI50: 17.9 µM
  TGI: 32 µM
MDA-MB-231 breast
  GI50: 17.7 µM
  TGI: 31.7 µM
OVCAR-3 ovarian
  GI50: 14.6 µM
  TGI: 27.9 µM
SK-OV-3 ovarian
  GI50: 19.3 µM
  TGI: 33.4 µM
HL-60(TB) leukemia
  GI50: 13 µM
  TGI: 25.9 µM
SF-295 CNS
  GI50: 17.5 µM
  TGI: 31.6 µM
KM12 colon
  GI50: 17.9 µM
  TGI: 32 µM
HT29 colon
  GI50: 19 µM
  TGI: 33.2 µM
PC-3 prostate
  GI50: 19.1 µM
  TGI: 33.3 µM
RXF 393 renal
  GI50: 2 µM
  TGI: 3.43 µM
IGROV1 ovarian
  GI50: 17.2 µM
  TGI: 31.1 µM
NCI/ADR-RES ovarian
  GI50: 16.2 µM
  TGI: 29.9 µM
MDA-MB-435 melanoma
  GI50: 16.9 µM
  TGI: 30.7 µM
MOLT-4 leukemia
  GI50: 2.27 µM
  TGI: 6.55 µM

## Cc1[nH]c(/C=C2\C(=O)Nc3ccccc32)c(C)c1CCC(=O)O
TK-10 renal
  GI50: 23.2 µM
  TGI: 59.3 µM
T-47D breast
  GI50: 53.7 µM
  TGI: > 100 µM
786-0 renal
  GI50: 52 µM
  TGI: > 100 µM
HS 578T breast
  GI50: 22.1 µM
  TGI: 78.7 µM
SK-MEL-28 melanoma
  GI50: 23.1 µM
  TGI: 52.6 µM
BT-549 breast
  GI50: 18 µM
  TGI: 42.3 µM
HOP-92 NSCLC
  GI50: 19.8 µM
  TGI: 43.3 µM
M14 melanoma
  GI50: 15.1 µM
  TGI: 33.9 µM
SF-539 CNS
  GI50: 13.1 µM
  TGI: 45.4 µM
UACC-257 melanoma
  GI50: 17.7 µM
  TGI: 47.8 µM
SW-620 colon
  GI50: 19.6 µM
  TGI: 41.4 µM
SN12C renal
  GI50: 27.7 µM
  TGI: 89.3 µM
EKVX NSCLC
  GI50: 17.6 µM
  TGI: 52.7 µM
SK-MEL-2 melanoma
  GI50: 24 µM
  TGI: 41.7 µM
HOP-62 NSCLC
  GI50: 42.4 µM
  TGI: > 100 µM
NCI-H460 NSCLC
  GI50: 17.6 µM
  TGI: 34.2 µM
CAKI-1 renal
  GI50: 15.1 µM
  TGI: 40.3 µM
RPMI-8226 leukemia
  GI50: 16.2 µM
  TGI: 30.5 µM
A549 NSCLC
  GI50: 29.2 µM
  TGI: 84.7 µM
HCT-15 colon
  GI50: 25.3 µM
  TGI: 59.6 µM
CCRF-CEM leukemia
  GI50: 18.1 µM
  TGI: 34.4 µM
MDA-MB-468 breast
  GI50: 16.3 µM
  TGI: 32.6 µM
SNB-75 CNS
  GI50: 11.7 µM
  TGI: > 100 µM
NCI-H522 lung
  GI50: 21.2 µM
  TGI: 62.1 µM
SF-268 CNS
  GI50: 24.5 µM
  TGI: 73.9 µM
NCI-H226 lung
  GI50: 15.3 µM
  TGI: 34.4 µM
COLO 205 colon
  GI50: 22.8 µM
  TGI: 38.7 µM
NCI-H23 lung
  GI50: 16.6 µM
  TGI: 40.1 µM
MALME-3M melanoma
  GI50: 5.47 µM
  TGI: 23.1 µM
A498 renal
  GI50: 29 µM
  TGI: > 100 µM
NCI-H322M lung
  GI50: 38.4 µM
  TGI: > 100 µM
UACC-62 melanoma
  GI50: 25.9 µM
  TGI: 70.3 µM
HCC-2998 colon
  GI50: 24.1 µM
  TGI: 75.3 µM
SNB-19 CNS
  GI50: 61.7 µM
  TGI: > 100 µM
OVCAR-5 ovarian
  GI50: 20.2 µM
  TGI: 55.3 µM
MCF7 breast
  GI50: 39.9 µM
  TGI: > 100 µM
OVCAR-4 ovarian
  GI50: 22.6 µM
  TGI: > 100 µM
SK-MEL-5 melanoma
  GI50: 17.2 µM
  TGI: 36 µM
SR leukemia
  GI50: 19.1 µM
  TGI: 33.3 µM
OVCAR-8 ovarian
  GI50: 32 µM
  TGI: > 100 µM
ACHN renal
  GI50: 24.6 µM
  TGI: 68.4 µM
U251 glioblastoma
  GI50: 35 µM
  TGI: > 100 µM
DU-145 prostate
  GI50: 35.4 µM
  TGI: > 100 µM
MDA-MB-231 breast
  GI50: 16.5 µM
  TGI: 53 µM
OVCAR-3 ovarian
  GI50: 27.4 µM
  TGI: 89 µM
SK-OV-3 ovarian
  GI50: 14.3 µM
  TGI: 38.7 µM
HL-60(TB) leukemia
  GI50: 23.9 µM
  TGI: 39.2 µM
SF-295 CNS
  GI50: > 100 µM
  TGI: > 100 µM
KM12 colon
  GI50: 4.33 µM
  TGI: 52.9 µM
HT29 colon
  GI50: 26 µM
  TGI: 67.6 µM
PC-3 prostate
  GI50: 24.6 µM
  TGI: 81.9 µM
RXF 393 renal
  GI50: 56 µM
  TGI: > 100 µM
IGROV1 ovarian
  GI50: 25.6 µM
  TGI: 86.5 µM
NCI/ADR-RES ovarian
  GI50: 31.9 µM
  TGI: > 100 µM
MDA-MB-435 melanoma
  GI50: 21.3 µM
  TGI: 51.4 µM
MOLT-4 leukemia
  GI50: 16.3 µM
  TGI: 30.3 µM
